Source: paper PMC8920097, “Prediction of hERG inhibition of drug discovery compounds using biomimetic HPLC measurements” (ADMET & DMPK, 2021)
Where two headings read alike, the source gives them in different places.

Key:
[1] = Phospholipid binding at pH 7.4 on IAM PC.DD2 HPLC column; format: physicochemical; design: key to CHI IAM: approximates acetonitrile concentration (%) in mobile phase at elution
Experimental: The phospholipid-binding was measured using an IAM PC.DD2 column with dimensions of 100 x 4.6 mm (Regis Technologies Inc., Morton Grove, IL, USA). The gradient retention times were measured using a 50 mM ammonium acetate mobile phase with the pH adjusted to 7.4. The mobile phase flow rate was 1.5 mL/min. […] The cycle time was 6 min, plus an additional 1 min equilibration time was applied while the injector prepared for the next injection. The gradient retention times were calibrated with the acetophenone homologues for which the CHI IAM values have been established using isocratic measurements. […] The CHI Index on the IAM column (CHI IAM) approximates the acetonitrile concentration in the mobile phase when the compound elutes. […] The CHI IAM values have been converted to log k IAM values derived from the CHI IAM values using equation 1. It represents the equivalent value derived from several isocratic measurements with extrapolated log retention factors to 100 % aqueous mobile phase. The log k IAM values can be converted to log K (IAM) values and show linear relationships with the octanol/water partition coefficients.

[2] = CHI lipophilicity by gradient reversed-phase HPLC (Gemini NX-C-18); conditions: for chromatographic logD: Gemini NX-C-18 reversed-phase HPLC column, pH 7.4; for chromatographic logP: reversed-phase HPLC, Gemini NX-C-18 column (50 x 3 mm, 5 µm)
Experimental: The Chromatographic Hydrophobicity Index (CHI) was measured using the compounds’ calibrated gradient retention times obtained from an Agilent 1100 HPLC fitted with a Gemini NX-C-18 column (Phenomenex Ltd Macclesfield, UK) with dimensions of 50 x 3 mm and 5 μm particle size. […] The mobile phase B was 100 % acetonitrile. […] An acetonitrile linear gradient was used from 0 to 100 %. […] The retention time values for a standard set of compounds listed in Table 1 were used to convert the drug retention times to CHI values.

[3] = Charge character of the drugs at pH 7.4; format: physicochemical
hERG channel = conditions: cited from earlier work
[4] = tested on: alpha-1-acid-glycoprotein (AGP); test: Protein binding on Chiralpak AGP HPLC column; conditions: pH 7.4, Chiralpak AGP
Experimental: The measurement of the biomimetic properties of the available drugs was conducted in our laboratories. Generic gradient HPLC methods were used to determine the chromatographic hydrophobicity Index (CHI) using mobile phases at three different pH values. The protein binding of the compounds was measured using immobilised human serum albumin (HSA), and alpha-1-acid-glycoprotein (AGP) stationary phases. The phospholipid-binding was measured using the immobilised artificial membrane (IAM) stationary phase. The aim was to establish relationships between the cardiotoxicity potential and the biomimetic binding properties of the drugs and to evaluate their predictive performance.

[5] = pH 7.4, derived from CHI IAM by equation 1
[6] = literature values, mean where several reported, molar

log k IAM [1, 5] | chromatographic logD [2] | chromatographic logP [2] | Charge [3] | CHI IAM ([1]; pH 7.4) | Compound | hERG pIC50 (hERG channel; [6]) | log k AGP [4] | hERG pIC50 (hERG channel) | log k IAM ([1]; pH 7.4)
2.64 | -0.58 | 0.97 | Basic | 48.16 | CN(C)CCCN1c2ccccc2Sc2ccc(Cl)cc21 [Chlorpromazine] | 5.65 | 1.79 |  | 
1.59 |  |  | Zwitterionic |  | O=C(O)c1cn(C2CC2)c2cc(N3CCNCC3)c(F)cc2c1=O [Ciprofloxacin] |  |  |  | 
3.19 | 3.18 | 3.18 | Basic |  | CN1CCC[C@@H]1CCO[C@](C)(c1ccccc1)c1ccc(Cl)cc1 [Clemastine] |  | 1.18 |  | 
 |  |  | Basic |  | CNCCCN1c2ccccc2CCc2ccccc21 [Desipramine] | 5.36 | 0.94 |  | 
2.35 | 2.76 | 3.12 | Basic | 41.95 | COc1ccc([C@@H]2Sc3ccccc3N(CCN(C)C)C(=O)[C@@H]2OC(C)=O)cc1 [Diltiazem] |  |  |  | 
2.06 |  |  | Basic |  | CN(C)CCOC(c1ccccc1)c1ccccc1 [Diphenhydramine] |  |  |  | 
1.95 | 1.46 | 1.46 | Weak Base |  | O=C(O[C@@H]1C[C@@H]2C[C@H]3C[C@H](C1)N2CC3=O)c1c[nH]c2ccccc12 [Dolasetron] |  |  |  | 
3.12 | 4.96 | 6.54 | Basic |  | CC(C)(C)c1ccc(C(=O)CCCN2CCC(OC(c3ccccc3)c3ccccc3)CC2)cc1 [Ebastine] |  | 1.34 |  | 
2.20 | 1.31 | 2.6 | Basic | 38.79 | CC[C@H]1OC(=O)[C@H](C)[C@@H](O[C@H]2C[C@@](C)(OC)[C@@H](O)[C@H](C)O2)[C@H](C)[C@@H](O[C@@H]2O[C@H](C)C[C@H](N(C)C)[C@H]2O)[C@](C)(O)C[C@@H](C)C(=O)[C@H](C)[C@@H](O)[C@]1(C)O [Erythromycin] |  |  |  | 
1.93 | 2.07 | 3.17 | Acidic |  | COc1ccc(Cl)cc1C(=O)NCCc1ccc(S(=O)(=O)NC(=O)NC2CCCCC2)cc1 [Glibenclamide] |  |  |  | 
2.16 |  |  |  | 37.86 | CC(=O)N1CCN(c2ccc(OCC3COC(Cn4ccnc4)(c4ccc(Cl)cc4Cl)O3)cc2)CC1 (stereo not shown) [Ketoconazole] |  |  |  | 
2.16 | -0.14 | -0.14 |  | 37.89 | CCn1cc(C(=O)O)c(=O)c2cc(F)c(N3CCNC(C)C3)c(F)c21 (stereo not shown) [Lomefloxacin] |  |  |  | 
2.46 |  |  | Weak Base |  | CCOC(=O)N1CCC(=C2c3ccc(Cl)cc3CCc3cccnc32)CC1 [Loratadine] |  |  |  | 
2.46 | 4.09 |  |  | 44.38 | CC[C@H](C)C(=O)O[C@H]1C[C@@H](C)C=C2C=C[C@H](C)[C@H](CC[C@@H]3C[C@@H](O)CC(=O)O3)[C@H]21 [Lovastatin] |  |  |  | 
3.03 | 2.03 | 4.79 | Basic |  | CNCCCC12CCC(c3ccccc31)c1ccccc12 [Maprotiline] | 5.17 | 0.99 |  | 
 | 3.15 | 3.19 | Neutral |  | CCOC(=O)C1=C(C)NC(C)=C(C(=O)OC)C1c1cccc([N+](=O)[O-])c1 (stereo not shown) [Nitrendipine] | 5.10 | 0.69 |  | 
1.29 | -0.59 | 0.95 | Basic |  | CCN(CC)CCNC(=O)c1ccc(N)cc1 [Procainamide] |  |  |  | 
 | 2.55 | 2.69 |  |  | OCCOCCN1CCN(C2=Nc3ccccc3Sc3ccccc32)CC1 [Quetiapine] |  |  |  | 
2.2 | 3.25 | 3.41 | Neutral | 38.64 | CC(C)c1nc(CN(C)C(=O)N[C@H](C(=O)N[C@@H](Cc2ccccc2)C[C@H](O)[C@H](Cc2ccccc2)NC(=O)OCc2cncs2)C(C)C)cs1 [Ritonavir] |  | 0.64 |  | 
2.03 | 2.59 | 2.62 | Weak Base | 35.00 | CCCc1nn(C)c2c(=O)[nH]c(-c3cc(S(=O)(=O)N4CCN(C)CC4)ccc3OCC)nc12 [Sildenafil] |  |  |  | 
1.01 |  |  |  |  | Cc1cc(NS(=O)(=O)c2ccc(N)cc2)no1 [Sulfamethoxazole] |  |  |  | 
3.65 | 3.02 | 5.46 |  |  | CSc1ccc2c(c1)N(CCC1CCCCN1C)c1ccccc1S2 (stereo not shown) [Thioridazine] |  |  |  | 

Continued, compound first:

Compound | log k IAM [1, 5] | chromatographic logD [2] | chromatographic logP [2] | Charge [3] | CHI IAM ([1]; pH 7.4) | hERG pIC50 (hERG channel; [6]) | log k AGP [4] | hERG pIC50 (hERG channel) | log k IAM ([1]; pH 7.4)
CN(C)CCC=C1c2ccccc2CCc2ccccc21 [Amitriptyline] | 2.96 | 2.65 | 5.21 | Basic |  |  |  |  | 
CN1CCc2cccc3c2[C@H]1Cc1ccc(O)c(O)c1-3 [Apomorphine] | 2.24 | 1.17 | 2.66 |  |  |  |  |  | 
CC(C)NCC(O)COc1ccc(CC(N)=O)cc1 (stereo not shown) [Atenolol] | 1.14 |  |  | Basic |  |  |  |  | 
O=C(O)COCCN1CCN(C(c2ccccc2)c2ccc(Cl)cc2)CC1 (stereo not shown) [Cetirizine] | 2.29 |  |  |  |  |  |  |  | 
CCN(CC)CCCC(C)Nc1ccnc2cc(Cl)ccc12 (stereo not shown) [Chloroquine] |  |  |  |  |  | 5.03 |  |  | 
CN(C)CCCC1(c2ccc(F)cc2)OCc2cc(C#N)ccc21 (stereo not shown) [Citalopram] |  |  |  | Basic |  |  |  | 5.27 | 
CNCCC(Oc1ccc(C(F)(F)F)cc1)c1ccccc1 (stereo not shown) [Fluoxetine] |  |  |  |  |  | 5.73 |  |  | 
CCC1=C(C)CN(C(=O)NCCc2ccc(S(=O)(=O)NC(=O)N[C@H]3CC[C@H](C)CC3)cc2)C1=O [Glimepiride] | 1.83 | 2.42 | 3.25 |  | 30.76 |  | 0.40 | 4.13 | 
CN(C)CCCN1c2ccccc2CCc2ccccc21 [Imipramine] |  |  |  |  |  |  | 0.96 |  | 
C[C@H]1COc2c(N3CCN(C)CC3)c(F)cc3c(=O)c(C(=O)O)cn1c23 [Levofloxacin] | 1.73 | 0.54 |  | Zwitterionic | 28.55 |  | -0.74 | 2.93 | 
CCN(CC)CC(=O)Nc1c(C)cccc1C [Lidocaine] | 1.91 |  |  | Weak Base |  |  |  |  | 
COCC(=O)O[C@]1(CCN(C)CCCc2nc3ccccc3[nH]2)CCc2cc(F)ccc2[C@@H]1C(C)C [Mibefradil] | 2.96 | 2.96 | 3.99 | Basic |  |  | 1.11 | 5.88 | 
Clc1ccc(COC(Cn2ccnc2)c2ccc(Cl)cc2Cl)c(Cl)c1 (stereo not shown) [Miconazole] | 2.89 | 4.64 | 4.7 | Weak Base | 53.72 |  | 1.26 | 5.68 | 
CC1COc2c(N3CCN(C)CC3)c(F)cc3c(=O)c(C(=O)O)cn1c23 (stereo not shown) [Ofloxacin] | 1.62 | 0.53 |  | Zwitterionic |  |  | -0.81 | 2.93 | 
Cc1cc2c(s1)Nc1ccccc1N=C2N1CCN(C)CC1 [Olanzapine] |  |  |  | Weak Base |  |  |  |  | 2.71
C=C[C@H]1C[N@@]2CC[C@H]1C[C@@H]2[C@@H](O)c1ccnc2ccc(OC)cc12 [Quinidine] | 2.71 |  |  | Basic |  |  | 0.68 | 5.51 | 
Cc1nc2n(c(=O)c1CCN1CCC(c3noc4cc(F)ccc34)CC1)CCCC2 [Risperidone] | 2.09 |  |  | Weak Base |  |  |  |  | 
Cc1ccc(O)c([C@H](CCN(C(C)C)C(C)C)c2ccccc2)c1 [Tolterodine] | 2.83 | 2 | 4.95 |  |  |  |  |  | 
Nicotine |  |  |  |  |  |  |  | 3.61 | 
Prazosin |  |  |  |  |  | 5.22 |  |  | 
